Laboratory results as given in PMC4971072, “Chemically Homogenous Compounds with Antagonistic Properties at All α1-Adrenoceptor Subtypes but not β1-Adrenoceptor Attenuate Adrenaline-Induced Arrhythmia in Rats” (Frontiers in Pharmacology, 2016).
Where a name gives a salt, the structure may show the parent alone. Marks after values point to notes of the source that are not given here.

Assays:
[1] = test system: adrenaline-induced arrhythmia in rats; test: Prophylactic antiarrhythmic activity in adrenaline-induced arrhythmia; assay type: in vivo, rat
Description: The studied compounds were administered i.p. 45 min before the injection of adrenaline, calcium chloride, or barium chloride. The electrocardiogram (ECG) was recorded during the first 2 min as well as in the 5th, 10th, and 15th min after the arrhythmogen injection. […]

[2] = test system: lipid peroxidation in rat brain homogenate; test: Lipid peroxidation in rat brain homogenate (TBARS), antioxidant effect; assay type: biochemical; settings: 10^−3 M
Description: The rat brain homogenate containing 10 mg tissue/ml was prepared in 0.9% saline. The rates of membrane lipid peroxidation were measured by the formation of thiobarbituric acid reactive substances (TBARS). Rat brain homogenates (1 ml) were incubated at 37°C for 5 min with 10 μl of a tested compound or vehicle. Lipid peroxidation was initiated by the addition of 50 μl of 0.5 mM FeCl2 and 50 μl of 2.0 mM ascorbic acid. After 30 min of incubation, the reaction was stopped by adding 0.1 ml of 0.2% butylated hydroxytoluene (BHT). Thiobarbituric acid reagent was then added and the mixture was heated for 15 min in a boiling water bath.

α1B-adrenoceptors = target: T1, α1B-adrenoceptors (Mus musculus, UniProt P97717); test: Functional bioassay, isolated mouse spleen, noradrenaline contraction; assay type: biochemical; settings: noradrenaline as agonist
T1 construct: The spleen was removed from male mice; from tissue; host or cells: isolated mouse spleen
T1 sequence (P97717 1-514): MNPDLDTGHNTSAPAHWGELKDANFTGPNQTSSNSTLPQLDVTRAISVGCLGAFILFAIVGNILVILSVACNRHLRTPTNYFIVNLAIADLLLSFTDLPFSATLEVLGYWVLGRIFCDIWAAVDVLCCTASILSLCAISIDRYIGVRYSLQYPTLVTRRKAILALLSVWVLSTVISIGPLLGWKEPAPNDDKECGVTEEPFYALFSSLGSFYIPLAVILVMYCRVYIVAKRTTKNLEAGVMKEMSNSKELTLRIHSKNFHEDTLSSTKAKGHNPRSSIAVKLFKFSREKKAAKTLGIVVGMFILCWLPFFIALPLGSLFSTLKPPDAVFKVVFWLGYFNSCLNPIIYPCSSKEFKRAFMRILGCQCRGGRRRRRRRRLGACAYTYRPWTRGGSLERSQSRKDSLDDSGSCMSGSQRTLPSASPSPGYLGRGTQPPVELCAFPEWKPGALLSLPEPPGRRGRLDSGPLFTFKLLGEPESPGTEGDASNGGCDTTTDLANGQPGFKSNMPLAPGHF
Description: The influence on α1B-adrenoceptors was evaluated using the isolated mouse spleen. The spleen was removed from male mice right after killing the anesthetized animal by cervical dislocation. […] The initial optimal tissues tension was set at 1.0 g. Through the 100 min of equilibration tissues were stimulated with noradrenaline (0.1−10.0 μM) three times with washing out until the contractile response become constant. Two cumulative concentration-response curves to noradrenaline, at an interval of 60 min, were established on each tissue both in the presence and absence of antagonist. The incubation with antagonists went on for 30 min. The experiments were carried out in the constant presence of propranolol (1 μM) to block β-adrenoceptors, and minimize the involvement of these adrenoceptors in the response to noradrenaline.
Data are means ± S.E.M. of at least 4 separate experiments. To establish Hill slopes for the agonist concentration–response curves and calculate EC50 values, curves were fitted to all the data by non-linear regression. The EC50 value in the presence and absence of antagonists was used to ascertain the concentration ratio (CR). Schild analysis was performed.

β1-adrenergic receptor = target: T2, β1-adrenergic receptor (Rattus norvegicus, UniProt P18090); test: β1-adrenoceptor radioligand binding assay ([3H]-CGP-12177, rat cerebral cortex); settings: read-out: Adrenergic receptors Ki β1
T2 construct: The brains were homogenized in 20 volumes of an ice-cold 50 mM Tris-HCl buffer; from tissue; host or cells: rat cerebral cortex membranes
Description: The α1- and β1-adrenoceptor radioligand binding assay was performed on rat cerebral cortex. […] The cell pellet was resuspended in the Tris–HCl buffer and centrifuged again. Radioligand binding assays were performed in plates (MultiScreen/Millipore). […] The incubation was terminated by rapid filtration through glass fiber filters (Whatman GF/C) using a vacuum manifold (Millipore). The filters were then washed twice with the assay buffer and placed in scintillation vials with a liquid scintillation cocktail. […] All the assays were made in duplicate and the inhibitory constants (Ki) were estimated.
LO–labeled ligand concentration, KD–dissociation constant of labeled ligand

normal ECG in rats = test: The effect on normal electrocardiogram in rats; assay type: in vivo, rat; settings: anesthetized rats
Description: The experiment was carried out to exclude the influence of tested compounds on normal ECG. […] The influence on QRS complex, PQ interval, heart rate (RR), and QTc interval was determined.

[3] = dose 0.1 mg/kg i.p. 45 min before adrenaline 20 μg/kg i.v.
[4] = dose 0.2 mg/kg i.p. 45 min before adrenaline 20 μg/kg i.v.
[5] = dose 0.3 mg/kg i.p. 45 min before adrenaline 20 μg/kg i.v.
[6] = i.p. at ED84, 0 min (initial values)

T2 sequence (P18090 whole entry): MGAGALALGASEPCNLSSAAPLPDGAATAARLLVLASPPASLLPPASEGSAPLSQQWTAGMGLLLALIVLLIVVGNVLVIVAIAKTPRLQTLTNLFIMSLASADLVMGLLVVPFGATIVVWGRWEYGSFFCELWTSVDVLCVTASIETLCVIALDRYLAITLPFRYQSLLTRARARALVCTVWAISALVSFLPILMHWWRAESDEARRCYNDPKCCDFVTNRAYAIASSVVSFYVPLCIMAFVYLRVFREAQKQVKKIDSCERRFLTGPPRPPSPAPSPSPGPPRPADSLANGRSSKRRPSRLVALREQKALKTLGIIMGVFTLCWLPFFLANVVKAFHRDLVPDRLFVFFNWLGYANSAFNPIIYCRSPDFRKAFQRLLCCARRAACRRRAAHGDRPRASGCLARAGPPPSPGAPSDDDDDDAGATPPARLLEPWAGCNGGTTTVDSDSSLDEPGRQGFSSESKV

SMILES: COc1ccccc1N1CCN(CCCOc2c(C)cc(C)cc2C)CC1 [HBK-18, 1N-[3-(2,4,6-trimethylphenoxy)propyl]-4N-(2-methoxyphenyl)piperazine hydrochloride]
- ED50 ([1]; Rattus norvegicus, read-out: ED50 (confidence limits)): 0.18 mg/kg
- Bigeminy (%) [1, 3]: 50.0%
- Blocks (%) [1, 3]: 66.7%
- Bradycardia (%) [1, 3]: 66.7%
- Extrasystoles (%) [1, 3]: 83.3%
- Bigeminy (%) [1, 4]: 16.7%
- Blocks (%) [1, 4]: 33.0%
- Bradycardia (%) [1, 4]: 50.0%
- Extrasystoles (%) [1, 4]: 50.0%
- Blocks (%) [1, 5]: 16.3%
- Bradycardia (%) [1, 5]: 16.3%
- Extrasystoles (%) [1, 5]: 16.7%
- inhibition of lipid peroxidation (in words) [2]: inhibited lipid peroxidation
- % reduction of absorbance (% antioxidant activity) ([2]; TBARs at 532 nm): 13.41%
- Absorbance ([2]; TBARs at 532 nm): 0.781 ± 0.004
- Schild slope ± S.E.M., α1B (α1B-adrenoceptors): 1.03 ± 0.18
- Kb (α1B-adrenoceptors; read-out: pA2 ± S.E.M., α1B (converted)): 4.47 nM
- Ki (β1-adrenergic receptor): > 10000 nM
- influence on ECG parameters (PQ interval, QRS complex, QTc interval) (normal ECG in rats; i.p. at ED84): did not affect PQ interval, QRS complex or QTc interval
- reduction of heart rate (normal ECG in rats; i.p. at ED84, over the period of significant effect vs. initial values): 13−23%
- Beats/min (ECG) (normal ECG in rats; [6]): 328.0 ± 7.4 Beats/min
- PQ (ECG) (normal ECG in rats; [6]): 61.3 ± 4.6 ms
- QRS (ECG) (normal ECG in rats; [6]): 28.1 ± 3.1 ms
- QT (ECG) (normal ECG in rats; [6]): 73.9 ± 6.2 ms
- QTc (ECG, Bazett) (normal ECG in rats; [6]): 172.4 ± 13.5 ms
- Beats/min (ECG) (normal ECG in rats; i.p. at ED84, 5 min): 306.9 ± 9.0 Beats/min
- PQ (ECG) (normal ECG in rats; i.p. at ED84, 5 min): 61.5 ± 6.3 ms
- QRS (ECG) (normal ECG in rats; i.p. at ED84, 5 min): 30.4 ± 3.2 ms
- QT (ECG) (normal ECG in rats; i.p. at ED84, 5 min): 77.0 ± 7.0 ms
- QTc (ECG, Bazett) (normal ECG in rats; i.p. at ED84, 5 min): 174.2 ± 16.3 ms
- Beats/min (ECG) (normal ECG in rats; i.p. at ED84, 10 min): 298.7 ± 8.9 Beats/min
- PQ (ECG) (normal ECG in rats; i.p. at ED84, 10 min): 57.4 ± 4.2 ms
- QRS (ECG) (normal ECG in rats; i.p. at ED84, 10 min): 30.8 ± 3.6 ms
- QT (ECG) (normal ECG in rats; i.p. at ED84, 10 min): 77.7 ± 4.9 ms
- QTc (ECG, Bazett) (normal ECG in rats; i.p. at ED84, 10 min): 173.4 ± 11.7 ms
- Beats/min (ECG) (normal ECG in rats; i.p. at ED84, 15 min): 284.7 ± 7.6^a Beats/min
- PQ (ECG) (normal ECG in rats; i.p. at ED84, 15 min): 55.8 ± 1.6 ms
- QRS (ECG) (normal ECG in rats; i.p. at ED84, 15 min): 27.0 ± 2.9 ms
- QT (ECG) (normal ECG in rats; i.p. at ED84, 15 min): 76.1 ± 5.8 ms
- QTc (ECG, Bazett) (normal ECG in rats; i.p. at ED84, 15 min): 166.4 ± 14.5 ms
- Beats/min (ECG) (normal ECG in rats; i.p. at ED84, 20 min): 273.9 ± 8.0^b Beats/min
- PQ (ECG) (normal ECG in rats; i.p. at ED84, 20 min): 51.9 ± 3.8 ms
- QRS (ECG) (normal ECG in rats; i.p. at ED84, 20 min): 29.1 ± 2.7 ms
- QT (ECG) (normal ECG in rats; i.p. at ED84, 20 min): 77.9 ± 4.2 ms
- QTc (ECG, Bazett) (normal ECG in rats; i.p. at ED84, 20 min): 166.9 ± 11.1 ms
- Beats/min (ECG) (normal ECG in rats; i.p. at ED84, 30 min): 267.4 ± 17.5^c Beats/min
- PQ (ECG) (normal ECG in rats; i.p. at ED84, 30 min): 56.9 ± 3.5 ms
- QRS (ECG) (normal ECG in rats; i.p. at ED84, 30 min): 28.5 ± 2.8 ms
- QT (ECG) (normal ECG in rats; i.p. at ED84, 30 min): 75.3 ± 3.2 ms
- QTc (ECG, Bazett) (normal ECG in rats; i.p. at ED84, 30 min): 159.0 ± 9.7 ms
- Beats/min (ECG) (normal ECG in rats; i.p. at ED84, 40 min): 260.3 ± 22.8^c Beats/min
- PQ (ECG) (normal ECG in rats; i.p. at ED84, 40 min): 57.4 ± 3.1 ms
- QRS (ECG) (normal ECG in rats; i.p. at ED84, 40 min): 28.6 ± 2.8 ms
- QT (ECG) (normal ECG in rats; i.p. at ED84, 40 min): 76.9 ± 4.9 ms
- QTc (ECG, Bazett) (normal ECG in rats; i.p. at ED84, 40 min): 160.4 ± 14.4 ms
- Beats/min (ECG) (normal ECG in rats; i.p. at ED84, 50 min): 258.9 ± 25.4^c Beats/min
- PQ (ECG) (normal ECG in rats; i.p. at ED84, 50 min): 59.0 ± 3.8 ms
- QRS (ECG) (normal ECG in rats; i.p. at ED84, 50 min): 27.6 ± 3.0 ms
- QT (ECG) (normal ECG in rats; i.p. at ED84, 50 min): 76.0 ± 2.9 ms
- QTc (ECG, Bazett) (normal ECG in rats; i.p. at ED84, 50 min): 157.2 ± 9.9 ms
- Beats/min (ECG) (normal ECG in rats; i.p. at ED84, 60 min): 252.3 ± 25.1^c Beats/min
- PQ (ECG) (normal ECG in rats; i.p. at ED84, 60 min): 59.6 ± 4.7 ms
- QRS (ECG) (normal ECG in rats; i.p. at ED84, 60 min): 30.9 ± 3.8 ms
- QT (ECG) (normal ECG in rats; i.p. at ED84, 60 min): 76.7 ± 3.5 ms
- QTc (ECG, Bazett) (normal ECG in rats; i.p. at ED84, 60 min): 157.1 ± 12.0 ms
